From article PMC6749586, “Design, Synthesis, and Anticancer Effect Studies of Iridium(III) Polypyridyl Complexes against SGC-7901 Cells” (Molecules, 2019)

System: SGC-7901 cells
Test: Annexin V-FITC/PI apoptosis analysis by flow cytometry
Type: cell-based, human
Settings: 4.0 µM 1, 15.0 µM 2 or 3; for Early apoptotic cells (EA): 24 h (b62 says 48 h), control 2.84%
Description: A total of 1 mL of SGC-7901 cells at 2 × 10^6 cells/mL was seeded in a six-well plate and incubated overnight in a CO2 incubator at 37 °C. Then, the cells were treated with 1, 2, or 3 for 24 h. After treatment, the cells were harvested, washed three times with ice-cold PBS, and then re-suspended in 195 μL of 1 × Annexin V-FITC binding buffer. Next, 10 μL of PI and 5 μL of Annexin-FITC were sequentially added to each sample, stained in the dark for 20 min, and analyzed by a FACS Calibur flow cytometer ([…] Dickinson & Co., Franklin Lakes, NJ, USA). Annexin-V positive cells were considered apoptotic.

## F[P-](F)(F)(F)(F)F.Nc1c(N)c2cccnc2c2ncccc12.[Ir+3].[c-]1ccccc1-c1ccccn1.[c-]1ccccc1-c1ccccn1 [Complex 3, [Ir(Hppy)2(DAP)]PF6]
  Percentage including early and late apoptotic cells: 41.8%
  Early apoptotic cells (EA): 13.7%

## F[P-](F)(F)(F)(F)F.O=[N+]([O-])c1cc2ccc[n+]3c2c2c1ccc[n+]2[Ir-5]312([c]3ccccc3-c3cccc[n+]31)[c]1ccccc1-c1cccc[n+]12 [Complex 1, [Ir(Hppy)2(NP)]PF6]
  Percentage including early and late apoptotic cells: 37.07%
  Early apoptotic cells (EA): 29.9%

## F[P-](F)(F)(F)(F)F.Nc1c([N+](=O)[O-])c2cccnc2c2ncccc12.[Ir+3].[c-]1ccccc1-c1ccccn1.[c-]1ccccc1-c1ccccn1 [Complex 2, [Ir(Hppy)2(NAP)]PF6]
  Percentage including early and late apoptotic cells: 35.6%
  Early apoptotic cells (EA): 14.8%
